From patent EP0308782A2, “Antimycotic preparations” (BAYER AG, priority 1987, dated 1989)
Values after ≈ are worked out from the molar mass of the structure shown.

Legend:
[1] = system: Aspergillus fumigatus; assay: Antimycotic in-vitro activity, serial dilution test (MIC); assay type: cell-based; conditions: Sabouraud's milieu d'epreuve, 28 °C to 37 °C, 96 h incubation, inoculum 5 x 10³ to 10⁴ germs/ml; for MIC: Aspergillus fumigatus, read-out: MHK-Werte Aspergillus fumigatus
Protocol: (§1) Die in-vitro-Prüfungen wurden im Reihenverdünnungstest mit Keiminokula von durchschnittlich 5 x 10³ bis 10⁴ Keimen/ml Substrat durchgeführt. Als Nährmedium dienten • a) für Dermatophyten und Schimmelpilze: Sabouraud's milieu d'epreuve • b) für Hefen: Fleischextrakt-Traubenzucker-Bouillon.
(§2) Die Bebrütungstemperatur betrug 28 °C bis 37 °C, die Bebrütungsdauer lag bei 24 bis 96 Stunden bei Hefen und 96 Stunden bei Dermatophyten und Schimmelpilzen.

[2] = system: Torulopsis glabrata; assay: as above; assay type: cell-based; conditions: meat extract-glucose broth, 28 °C to 37 °C, 24 to 96 h incubation, inoculum 5 x 10³ to 10⁴ germs/ml; for MIC: Nakaseomyces glabratus, read-out: MHK-Werte Torulopsis glabrata
Protocol: as §1, §2

[3] = system: Candida albicans; assay: as above; assay type: cell-based; conditions: meat extract-glucose broth, 28 °C to 37 °C, 24 to 96 h incubation, inoculum 5 x 10³ to 10⁴ germs/ml; for MIC: Candida albicans, read-out: MHK-Werte Candida albicans
Protocol: as §1, §2

[4] = system: Trichophyton mentagr.; assay: as above; assay type: cell-based; conditions: Sabouraud's milieu d'epreuve, 28 °C to 37 °C, 96 h incubation, inoculum 5 x 10³ to 10⁴ germs/ml; for MIC: Trichophyton, read-out: MHK-Werte Trichophyton mentagr.
Protocol: as §1, §2

[5] = system: Microsporum canis; assay: as above; assay type: cell-based; conditions: Sabouraud's milieu d'epreuve, 28 °C to 37 °C, 96 h incubation, inoculum 5 x 10³ to 10⁴ germs/ml; for MIC: Microsporum canis, 96 h, read-out: MHK-Werte Microsporum canis
Protocol: as §1, §2

[6] = system: Dermatophyten, Schimmelpilze, Hefen; assay: Antimycotic in-vitro activity, serial dilution test, overall spectrum; assay type: cell-based; conditions: statement in words on the in-vitro serial dilution test
Protocol: as §1, §2

[7] = system: Candida-Zellen; assay: Antimycotic in-vivo activity (oral) in mouse candidosis; parameters: species or system Mäuse vom Typ SPF-CF₁; conditions: for Antimykotische in-vivo-Wirksamkeit (oral) bei Mäusecandidose: mice infected i.v. with 1 - 2 x 10⁶ Candida cells, 10 - 100 mg/kg oral 1 h before and 7 h after infection, survivors on day 6 p.i.; for antimykotische Wirkung: statement in words, mouse candidosis, oral 10 - 100 mg/kg
Protocol: Mäuse vom Typ SPF-CF₁ wurden intravenös mit 1 - 2 x 10⁶ logarithmisch wachsenden Candida-Zellen, die in physiologischer Kochsalzlösung suspendiert werden, infiziert. Eine Stunde vor und sieben Stunden nach der Infektion werden die Tiere mit jeweils 10 - 100 mg/kg Körpergewicht der Präparate oral behandelt.
Unbehandelte Tiere starben 3 bis 6 Tage post infektionem. Die Überlebensrate am 6.Tag post infektionem betrug bei unbehandelten Kontrolltieren etwa 5 %.

## OC(Cn1cncn1)(Cn1cncn1)c1ccccc1 [(A), reference compound]
[1]
  MIC: > 64 mg/L
[2]
  MIC: > 64 mg/L
[3]
  MIC: 64 mg/L (≈ 237 µM)
[4]
  MIC: 64 mg/L (≈ 237 µM)

## CC(C)(n1cncn1)C(O)(Cn1cncn1)c1ccc(Cl)cc1 (centres unmarked) [(B), reference compound]
[1]
  MIC: > 64 mg/L
[5]
  MIC: > 64 mg/L
[2]
  MIC: > 64 mg/L
[3]
  MIC: > 64 mg/L
[4]
  MIC: 8 mg/L (≈ 24 µM)

## CC(C)(n1cccn1)C(O)(CCc1ccc(Cl)cc1)Cn1cncn1 (centres unmarked) [Beispiel 1, 5-(4-Chlorphenyl)-2-methyl-2-(pyrazol-1-yl)-3-(1,2,4-triazol-methyl)-pentan-3-ol]
[1]
  MHK-Werte Aspergillus fumigatus: 2 µg/ml Nährmedium
[5]
  MHK-Werte Microsporum canis: 2 µg/ml Nährmedium
[2]
  MHK-Werte Torulopsis glabrata: 2 µg/ml Nährmedium
[3]
  MHK-Werte Candida albicans: 2 µg/ml Nährmedium
[4]
  MHK-Werte Trichophyton mentagr.: <1 µg/ml Nährmedium
[6]
  antimykotisches Wirkungsspektrum: gutes antimykotisches Wirkungsspektrum

## CC(C)(Cn1cncn1)C(O)(CCc1ccc2ccccc2c1)Cn1cncn1 (centres unmarked) [Beispiel 2, 4,4-Dimethyl-1-(2-naphthyl)-5-(1,2,4-triazol-1-yl)-3-(1,2,4-triazol-1-yl-methyl)-3-pentanol]
[1]
  MIC: > 64 mg/L
[2]
  MIC: > 64 mg/L
[3]
  MIC: 32 mg/L (≈ 81.9 µM)
[4]
  MIC: 4 mg/L (≈ 10.2 µM)
[6]
  antimykotisches Wirkungsspektrum: gutes antimykotisches Wirkungsspektrum

## CC(C)(Cn1cncn1)C(O)(CCc1ccc(-c2ccccc2)cc1)Cn1cncn1 (centres unmarked) [Beispiel 5]
[1]
  MIC: 8 mg/L (≈ 19.2 µM)
[2]
  MIC: 32 mg/L (≈ 76.8 µM)
[3]
  MIC: 8 mg/L (≈ 19.2 µM)
[4]
  MIC: 2 mg/L (≈ 4.8 µM)
[6]
  antimykotisches Wirkungsspektrum: gutes antimykotisches Wirkungsspektrum
[7]
  Antimykotische in-vivo-Wirksamkeit (oral) bei Mäusecandidose: +++ (Wirkung = 60 % Überlebende am 6.Tag.p.i.)
  antimykotische Wirkung: gute antimykotische Wirkung

## CC(C)(n1cccn1)C(O)(/C=C/c1ccc(Cl)cc1)Cn1cncn1 (centres unmarked) [Beispiel 7]
[1]
  MIC: 4 mg/L (≈ 11.2 µM)
[5]
  MIC: 4 mg/L (≈ 11.2 µM)
[2]
  MIC: 16 mg/L (≈ 44.7 µM)
[3]
  MIC: < 1 mg/L
[4]
  MIC: < 1 mg/L
[6]
  antimykotisches Wirkungsspektrum: gutes antimykotisches Wirkungsspektrum

## CC(C)(n1cncn1)C(O)(C=Cc1ccc(Cl)cc1)Cn1cncn1 (centres unmarked) [Beispiel 8]
[7]
  Antimykotische in-vivo-Wirksamkeit (oral) bei Mäusecandidose: ++++ (gute Wirkung = 80 % Überlebende am 6.Tag.p.i.)
  antimykotische Wirkung: gute antimykotische Wirkung

## CC(C)(n1cncn1)C(O)(CSc1ccc(Cl)cc1)Cn1cncn1 (centres unmarked) [Beispiel 9]
[1]
  MIC: 64 mg/L (≈ 169 µM)
[2]
  MIC: 32 mg/L (≈ 84.5 µM)
[3]
  MIC: < 1 mg/L
[4]
  MIC: 2 mg/L (≈ 5.28 µM)
[6]
  antimykotisches Wirkungsspektrum: gutes antimykotisches Wirkungsspektrum

## CC(C)(n1cncn1)C(O)(COc1ccc(Cl)cc1)Cn1cncn1 (centres unmarked) [Beispiel 10]
[1]
  MIC: > 64 mg/L
[2]
  MIC: > 64 mg/L
[3]
  MIC: 2 mg/L (≈ 5.51 µM)
[4]
  MIC: 8 mg/L (≈ 22 µM)
[6]
  antimykotisches Wirkungsspektrum: gutes antimykotisches Wirkungsspektrum
[7]
  Antimykotische in-vivo-Wirksamkeit (oral) bei Mäusecandidose: +++++ (sehr gute Wirkung = 90 % Überlebende am 6.Tag.p.i.)
  antimykotische Wirkung: gute antimykotische Wirkung

## CC(C)(n1cncn1)C(O)(COc1ccc(Cl)cc1Cl)Cn1cncn1 (centres unmarked) [Beispiel 11]
[1]
  MIC: > 64 mg/L
[2]
  MIC: > 64 mg/L
[3]
  MIC: 8 mg/L (≈ 20.1 µM)
[4]
  MIC: 2 mg/L (≈ 5.03 µM)
[6]
  antimykotisches Wirkungsspektrum: gutes antimykotisches Wirkungsspektrum

## Cc1cc(Cl)ccc1OCC(O)(Cn1cncn1)C(C)(C)n1cncn1 (centres unmarked) [Beispiel 12]
[1]
  MIC: > 64 mg/L
[2]
  MIC: > 64 mg/L
[3]
  MIC: 16 mg/L (≈ 42.5 µM)
[4]
  MIC: 4 mg/L (≈ 10.6 µM)
[6]
  antimykotisches Wirkungsspektrum: gutes antimykotisches Wirkungsspektrum

## Cc1ccc(OCC(O)(Cn2cncn2)C(C)(C)n2cncn2)c(Cl)c1 (centres unmarked) [Beispiel 13]
[1]
  MIC: > 64 mg/L
[2]
  MIC: > 64 mg/L
[3]
  MIC: 32 mg/L (≈ 84.9 µM)
[4]
  MIC: 2 mg/L (≈ 5.31 µM)
[6]
  antimykotisches Wirkungsspektrum: gutes antimykotisches Wirkungsspektrum

## CC(C)(n1cccn1)C(O)(CCc1ccc(Cl)cc1)Cn1cncn1 (centres unmarked) [Beispiel 17]
[1]
  MIC: 2 mg/L (≈ 5.56 µM)
[5]
  MIC: 2 mg/L (≈ 5.56 µM)
[2]
  MHK-Werte Torulopsis glabrata: 32 µg/ml Nährmedium
[3]
  MHK-Werte Candida albicans: 16 µg/ml Nährmedium
[4]
  MIC: < 1 mg/L

## CC(C)(n1cccn1)C(O)(CCc1ccc(Cl)cc1)Cn1cncn1 (centres unmarked) [Beispiel 18]
[1]
  MHK-Werte Aspergillus fumigatus: 2 µg/ml Nährmedium
[5]
  MHK-Werte Microsporum canis: 4 µg/ml Nährmedium
[2]
  MHK-Werte Torulopsis glabrata: 2 µg/ml Nährmedium
[3]
  MHK-Werte Candida albicans: 8 µg/ml Nährmedium
[4]
  MHK-Werte Trichophyton mentagr.: <1 µg/ml Nährmedium

## CC(C)(n1cccn1)C(O)(CCc1ccccc1F)Cn1cncn1 (centres unmarked) [Beispiel 19]
[1]
  MIC: 16 mg/L (≈ 46.6 µM)
[2]
  MIC: 8 mg/L (≈ 23.3 µM)
[3]
  MIC: 16 mg/L (≈ 46.6 µM)
[4]
  MIC: 2 mg/L (≈ 5.82 µM)

## CC(C)(n1cccn1)C(O)(CCc1ccc(OC(F)(F)F)cc1)Cn1cncn1 (centres unmarked) [Beispiel 20]
[1]
  MIC: < 1 mg/L
[5]
  MIC: 2 mg/L (≈ 4.89 µM)
[2]
  MIC: 4 mg/L (≈ 9.77 µM)
[3]
  MIC: 4 mg/L (≈ 9.77 µM)
[4]
  MIC: < 1 mg/L

## Cc1cc(C)n(C(C)(C)C(O)(CCc2ccc(Cl)cc2)Cn2cncn2)n1 (centres unmarked) [Beispiel 21]
[1]
  MIC: 2 mg/L (≈ 5.16 µM)
[5]
  MIC: < 1 mg/L
[2]
  MIC: 16 mg/L (≈ 41.2 µM)
[3]
  MIC: 8 mg/L (≈ 20.6 µM)
[4]
  MIC: < 1 mg/L

## CC(C)(n1cccn1)C(O)(CCc1ccc(F)cc1F)Cn1cncn1 (centres unmarked) [Beispiel 22]
[1]
  MIC: 16 mg/L (≈ 44.3 µM)
[2]
  MIC: 8 mg/L (≈ 22.1 µM)
[3]
  MIC: 2 mg/L (≈ 5.53 µM)
[4]
  MIC: 2 mg/L (≈ 5.53 µM)

## CC(C)(n1cccn1)C(O)(CCc1ccc(Cl)cc1Cl)Cn1cncn1 (centres unmarked) [Beispiel 23]
[1]
  MIC: 8 mg/L (≈ 20.3 µM)
[2]
  MIC: 2 mg/L (≈ 5.07 µM)
[3]
  MIC: 8 mg/L (≈ 20.3 µM)
[4]
  MIC: 2 mg/L (≈ 5.07 µM)

## CC(C)(n1cccn1)C(O)(CCc1ccc(F)cc1)Cn1cncn1 (centres unmarked) [Beispiel 24]
[1]
  MIC: 8 mg/L (≈ 23.3 µM)
[5]
  MIC: 4 mg/L (≈ 11.6 µM)
[2]
  MIC: 4 mg/L (≈ 11.6 µM)
[3]
  MIC: < 1 mg/L
[4]
  MIC: < 1 mg/L

## Cc1cc(C)n(C(C)(C)C(O)(CCc2ccc(F)cc2)Cn2cncn2)n1 (centres unmarked) [Beispiel 25]
[1]
  MIC: 4 mg/L (≈ 10.8 µM)
[2]
  MIC: > 64 mg/L
[3]
  MIC: 16 mg/L (≈ 43.1 µM)
[4]
  MIC: 2 mg/L (≈ 5.38 µM)

## CC(C)(n1cccn1)C(O)(CCc1ccc(Cl)cc1F)Cn1cncn1 (centres unmarked) [Beispiel 26]
[1]
  MIC: 2 mg/L (≈ 5.29 µM)
[5]
  MIC: 2 mg/L (≈ 5.29 µM)
[2]
  MIC: 32 mg/L (≈ 84.7 µM)
[3]
  MIC: 8 mg/L (≈ 21.2 µM)
[4]
  MIC: < 1 mg/L

## CC(C)(n1cccn1)C(O)(CCc1ccc(F)cc1Cl)Cn1cncn1 (centres unmarked) [Beispiel 27]
[1]
  MIC: 32 mg/L (≈ 84.7 µM)
[2]
  MIC: 16 mg/L (≈ 42.3 µM)
[3]
  MIC: 8 mg/L (≈ 21.2 µM)
[4]
  MIC: 4 mg/L (≈ 10.6 µM)

## CC(C)(n1cccn1)C(O)(COc1ccc(Cl)cc1)Cn1cncn1 (centres unmarked) [Beispiel 28]
[1]
  MIC: 16 mg/L (≈ 44.2 µM)
[5]
  MIC: 8 mg/L (≈ 22.1 µM)
[2]
  MIC: 16 mg/L (≈ 44.2 µM)
[3]
  MIC: 32 mg/L (≈ 88.4 µM)
[4]
  MIC: < 1 mg/L

## CC(C)(n1cncn1)C(O)(CCc1ccc(Cl)cc1)Cn1cncn1 (centres unmarked) [Beispiel 29]
[1]
  MIC: 16 mg/L (≈ 44.3 µM)
[5]
  MIC: 4 mg/L (≈ 11.1 µM)
[2]
  MIC: 32 mg/L (≈ 88.7 µM)
[3]
  MIC: < 1 mg/L
[4]
  MIC: < 1 mg/L
